Like-named read-outs stand apart in the source and are kept apart here.
Legend:
[1] = test system: Epstein-Barr virus early antigen (EBV-EA) activation; test: In vitro antitumour-promoting assay: inhibition of EBV early antigen activation in Raji cells; assay type: cell-based; conditions: for IC50: human gammaherpesvirus 4, Raji cells, 3 mM sodium n-butyrate + 50 nM PMA, 48 h
Protocol: The inhibition of Epstein-Barr virus (EBV) activation was used to evaluate in vitro antitumour-promoting activity. Raji cells were incubated for 48 h at 37°C under 5% CO2 in 1 mL (~5 × 10^5 cells) of RPMI-1640 medium containing 3 mM sodium n-butyrate ([…] Tesque, Japan), 50 nM phorbol 12-myristate 13-acetate (PMA) (Sigma, USA) and the test compounds (600 μM) per well of a 24-well plate. Conventional indirect immunofluorescence staining of early antigen (EA) with high-titre EA-positive serum (EA titre 1 : 1,280) obtained from nasopharyngeal carcinoma (NPC) patients (1 : 20 serum dilution) followed by a 1 : 30 dilution of fluorescein-isothiocyanate-(FITC-)labeled IgG (Sigma, USA) was used to measure EBV activation. The ratio of EA-induced cells to the control experiments only with sodium n-butyrate and PMA was around 50%. The test compounds showing antitumour-promoting activity were serially diluted (2-fold) to determine the IC50 values.

[2] = test system: CEM-SS (human T-lymphoblastic leukemia) cells; test: MTT cytotoxicity assay; assay type: cell-based; conditions: 72 h
Protocol: The CEM-SS (human T-lymphoblastic leukemia) cell line was obtained from the National Cancer Institute, USA, and the Raji (human B-lymphoblastoid) cell line was provided by Prof. K. Koshimizu, Kinki University, Japan. Cells were cultured in RPMI-1640 (Sigma, USA) medium with 10% v/v foetal calf serum (Sera Lab, UK), 100 IU/mL penicillin (Sigma, USA) and 100 μg/mL streptomycin (Sigma, USA) as a complete growth medium (CGM). Cells were maintained in 25 cm^2 flask with 10 mL of CGM at 37°C with 5% CO2. Every three days the cells were subcultured by splitting the culture with fresh CGM at a ratio of 1 : 4 [10].
Cytotoxicity was determined using the MTT assay as reported by Ali et al.. Varying concentrations of the test compounds were prepared from the stock solutions by serial dilution in RPMI-1640 to give a volume of 100 μL in each well of a microtiter plate (96-well) as described before. Each well was filled with 100 μl of CEM-SS cell suspension in CGM at 1-2 × 10^5 cells/mL. Controls that contained only CEM-SS cells were included for each sample. The assay for each concentration of extract was performed in triplicate and the culture plates were kept at 37°C with 5% (v/v) CO2 for three days. After 72 h of incubation, 100 μL of medium was removed from each well. […] Absorbance values at 550 nm were measured with a microplate reader (Bio Tek EL 340, USA) after background subtraction at 630 nm. […]

[3] = test system: Brine shrimp (Artemia saline Leach); test: Brine shrimp lethality/toxicity assay; assay type: in vivo; conditions: brine shrimp nauplii, preliminary test concentration 300 μM
Protocol: Brine shrimp (Artemia saline Leach) eggs (Gold Eagle, USA) were placed in a hatching tank containing sea water for 48 h. Each compound (6 μmol) was dissolved in 0.2 mL methylene chloride:methanol (1 : 1) to prepare a stock solution of 30 mM. From the stock solutions, 50 μL was transferred to different vials and allowed to evaporate. After evaporation, 5 mL of brine was added to each vial in triplicate to prepare a preliminary test concentration corresponding to 300 μM. Ten shrimp nauplii were added to each vial (30 shrimps per concentration). The number of survivors out of 30 shrimps per concentration was recorded.

[4] = DPPH radical scavenging method; conditions: 0.3 mM, 30 min
Protocol: The methanol solution of 2,2-diphenyl-1-picrylhydrazyl hydrate (DPPH) (Aldrich Chem. Co., USA) radicals (1 mL, 0.3 mM) was added to each sample (1 mM, 0.5 mL) and was shaken vigorously. The absorbance of each sample was measured at 517 nm after allowing it to stand for 30 min. Each sample (final concentration, 0.3 mM) was assayed in triplicate and averaged. Standard antioxidants, that is, butylated hydroxytoluene (BHT) and ascorbic acid, were used as positive controls.

[5] = test system: Epstein-Barr virus early antigen (EBV-EA) activation; design: method as in PMID 9247600, PMID 22140296; conditions: known antitumour promoter; read-out: IC50, inhibition of EBV activation; cited from earlier work

Row | Structure (SMILES) | IC50 [1] [µM] | fold higher antitumour-promoting activity than compound 2 ([1]; ratio of EBV-EA IC50 values) [fold] | CD50 [2] [µM] | LC50 [3] [µM] | Radical scavenging (%), DPPH assay [4] [%] | IC50 [5] [µM]
1 | CCCCOC(=O)CC1(O)C(=O)OC1C(=O)OCCCC (stereo not shown) [Compound 1, 2-(butoxycarbonylmethyl)-3-butoxycarbonyl-2-hydroxy-3-propanolide] | 70 | 8 | > 100 | > 300 | 3.4 | –
2 | O=c1c(-c2ccc(O)cc2)coc2cc(O)cc(O)c12 [genistein] | – | – | – | – | – | ~20
3 | CCCCOC(=O)CC(O)(C(=O)OC)C(O)C(=O)OCCCC (stereo not shown) [Compound 2, 1′,1′′-dibutyl methyl hydroxycitrate] | 560 | – | > 100 | > 300 | 5.5 | –
